Experiments:
[1] = tested on: TLR4; assay: LPS-induced TLR4 protein expression in RAW 264.7 cells (Western blot); type: cell-based, murine; details: KMU-470 0.5 and 1 μM 30 min, LPS 6 h
Procedure: Figure 4 Inhibitory effect of KMU-470 on LPS-induced TLR4 and MyD88 protein expression in RAW 264.7 cells. (A,B) Cells were pre-treated with 0.5 and 1 μM of KMU-470 for 30 min prior to LPS treatment. Then, total protein was isolated after 6 h exposure to LPS. The protein expression level of TLR4 and MyD88 were assessed using Western blot analysis. (C,D) The relative optical densities of TLR4 and MyD88 bands were analyzed by the Image-J program. *** p < 0.001.
RAW 264.7 cells were pre-treated with KMU-470 (0.5–1 μM/mL) for 24 h and stimulated with LPS (50 ng/mL) for 6 h. After stimulation, total cells were harvested, washed with PBS buffer, and then the total protein was extracted with a RIPA buffer (0.1 mM sodium orthovanadate, 137 mM NaCl, 15 mM EGTA, 0.1% Triton X-100, 25 mM MOPS, 15 mM MgCl2, 100 μM phenylmethylsulfonyl fluoride, and 20 μM leupeptin, adjusted to pH 7.2). The cell culture media supernatants were precipitated using TCA (trichloroacetic acid, protocol by Luis Sanchez 2001). A BCA protein assay kit (Thermo Scientific, Wilmington, USA) was used for the determination of the protein concentration. […] Immunoreactive proteins were detected using the ELC Western blot detection system kit (Millipore). Signal intensity was measured using the Chemi Image documentation system (Fusion Fx7, VILBER LOUTMAT). Protein expression levels were quantified using the Image J program.

[2] = target: T1, Pyk2 (h) (Homo sapiens, UniProt Q14289); assay: Kinase profiling (Eurofins Cerep); type: biochemical; details: KMU-470 10 μM; ATP at Km
T1 construct: purchased Eurofins Cerep S.A. (kinase profiler service)
Procedure: (§1) To test the specificity of the novel PIM kinase inhibitor KMU-470, a kinase profiler service was conducted by Eurofins Cerep S.A. The screening was performed with 1 and 10 μM of compound and a concentration of ATP at the Km value for each individual kinase and kinase substrate according to Eurofin’s protocols.

[3] = target: T2, Txk (h) (Homo sapiens, UniProt P42681); assay: Kinase profiling (Eurofins Cerep); type: biochemical; details: KMU-470 10 μM; ATP at Km
T2 construct: purchased Eurofins Cerep S.A. (kinase profiler service)
Procedure: as §1

[4] = target: T3, Fgr (h) (Homo sapiens, UniProt P09769); assay: Kinase profiling (Eurofins Cerep); type: biochemical; details: ATP at Km
T3 construct: purchased Eurofins Cerep S.A. (kinase profiler service)
T3 sequence (P09769 whole entry): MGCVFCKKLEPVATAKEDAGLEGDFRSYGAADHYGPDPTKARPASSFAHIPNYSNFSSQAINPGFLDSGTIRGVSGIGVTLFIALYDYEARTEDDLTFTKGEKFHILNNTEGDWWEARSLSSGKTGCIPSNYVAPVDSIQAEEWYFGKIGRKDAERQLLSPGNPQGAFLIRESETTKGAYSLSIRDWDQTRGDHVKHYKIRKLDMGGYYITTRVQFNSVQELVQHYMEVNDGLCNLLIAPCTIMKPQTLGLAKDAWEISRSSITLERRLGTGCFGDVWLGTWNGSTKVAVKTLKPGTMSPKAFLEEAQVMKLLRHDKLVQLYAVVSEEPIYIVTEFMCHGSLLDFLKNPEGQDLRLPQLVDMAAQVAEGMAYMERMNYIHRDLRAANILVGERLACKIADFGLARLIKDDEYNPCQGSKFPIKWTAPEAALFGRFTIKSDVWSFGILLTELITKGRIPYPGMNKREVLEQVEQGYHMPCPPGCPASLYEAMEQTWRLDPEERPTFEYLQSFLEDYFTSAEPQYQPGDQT
Procedure: as §1

[5] = target: T4, Bmx (h) (Homo sapiens, UniProt P51813); assay: Kinase profiling (Eurofins Cerep); type: biochemical; details: KMU-470 10 μM; ATP at Km
T4 construct: purchased Eurofins Cerep S.A. (kinase profiler service)
Procedure: as §1

[6] = target: T5, JAK2 (h) (Homo sapiens, UniProt O60674); assay: Kinase profiling (Eurofins Cerep); type: biochemical; details: ATP at Km
T5 construct: purchased Eurofins Cerep S.A. (kinase profiler service)
T5 sequence (O60674 whole entry): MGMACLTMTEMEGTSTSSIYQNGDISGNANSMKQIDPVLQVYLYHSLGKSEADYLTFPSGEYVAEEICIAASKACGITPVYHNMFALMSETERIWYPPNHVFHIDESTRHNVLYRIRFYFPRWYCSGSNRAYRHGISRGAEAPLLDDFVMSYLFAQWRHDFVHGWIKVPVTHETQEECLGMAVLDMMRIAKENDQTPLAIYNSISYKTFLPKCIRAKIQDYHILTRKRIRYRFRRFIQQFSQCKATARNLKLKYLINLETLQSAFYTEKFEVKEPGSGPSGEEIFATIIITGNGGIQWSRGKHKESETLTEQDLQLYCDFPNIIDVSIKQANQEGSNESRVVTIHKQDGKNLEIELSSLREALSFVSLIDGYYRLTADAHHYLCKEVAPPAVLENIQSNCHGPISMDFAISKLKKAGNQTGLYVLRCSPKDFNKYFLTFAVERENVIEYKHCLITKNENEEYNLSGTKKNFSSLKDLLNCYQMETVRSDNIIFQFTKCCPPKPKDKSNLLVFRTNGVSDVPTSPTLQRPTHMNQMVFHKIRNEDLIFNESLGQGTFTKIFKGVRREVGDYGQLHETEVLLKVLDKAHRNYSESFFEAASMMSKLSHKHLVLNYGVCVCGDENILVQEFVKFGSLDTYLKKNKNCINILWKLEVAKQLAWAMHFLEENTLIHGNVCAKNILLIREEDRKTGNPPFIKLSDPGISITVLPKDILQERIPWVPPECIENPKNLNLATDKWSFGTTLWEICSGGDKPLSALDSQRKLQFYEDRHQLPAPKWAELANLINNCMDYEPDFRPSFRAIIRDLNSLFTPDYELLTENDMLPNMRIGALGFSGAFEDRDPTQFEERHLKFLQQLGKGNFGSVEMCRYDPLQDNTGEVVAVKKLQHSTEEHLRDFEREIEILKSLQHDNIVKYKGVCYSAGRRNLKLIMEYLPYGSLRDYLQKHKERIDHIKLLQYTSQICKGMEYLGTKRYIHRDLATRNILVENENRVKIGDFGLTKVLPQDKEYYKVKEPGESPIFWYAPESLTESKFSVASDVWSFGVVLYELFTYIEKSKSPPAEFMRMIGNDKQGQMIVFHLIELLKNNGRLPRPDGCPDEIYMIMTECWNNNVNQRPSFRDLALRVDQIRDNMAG
Procedure: as §1

[7] = target: T6, Csrc (h) (Homo sapiens, UniProt P12931); assay: Kinase profiling (Eurofins Cerep); type: biochemical; details: KMU-470 10 μM; ATP at Km
T6 construct: purchased Eurofins Cerep S.A. (kinase profiler service)
Procedure: as §1

[8] = target: T7, JAK3 (h) (Homo sapiens, UniProt P52333); assay: Kinase profiling (Eurofins Cerep); type: biochemical; details: ATP at Km
T7 construct: purchased Eurofins Cerep S.A. (kinase profiler service)
T7 sequence (P52333 whole entry): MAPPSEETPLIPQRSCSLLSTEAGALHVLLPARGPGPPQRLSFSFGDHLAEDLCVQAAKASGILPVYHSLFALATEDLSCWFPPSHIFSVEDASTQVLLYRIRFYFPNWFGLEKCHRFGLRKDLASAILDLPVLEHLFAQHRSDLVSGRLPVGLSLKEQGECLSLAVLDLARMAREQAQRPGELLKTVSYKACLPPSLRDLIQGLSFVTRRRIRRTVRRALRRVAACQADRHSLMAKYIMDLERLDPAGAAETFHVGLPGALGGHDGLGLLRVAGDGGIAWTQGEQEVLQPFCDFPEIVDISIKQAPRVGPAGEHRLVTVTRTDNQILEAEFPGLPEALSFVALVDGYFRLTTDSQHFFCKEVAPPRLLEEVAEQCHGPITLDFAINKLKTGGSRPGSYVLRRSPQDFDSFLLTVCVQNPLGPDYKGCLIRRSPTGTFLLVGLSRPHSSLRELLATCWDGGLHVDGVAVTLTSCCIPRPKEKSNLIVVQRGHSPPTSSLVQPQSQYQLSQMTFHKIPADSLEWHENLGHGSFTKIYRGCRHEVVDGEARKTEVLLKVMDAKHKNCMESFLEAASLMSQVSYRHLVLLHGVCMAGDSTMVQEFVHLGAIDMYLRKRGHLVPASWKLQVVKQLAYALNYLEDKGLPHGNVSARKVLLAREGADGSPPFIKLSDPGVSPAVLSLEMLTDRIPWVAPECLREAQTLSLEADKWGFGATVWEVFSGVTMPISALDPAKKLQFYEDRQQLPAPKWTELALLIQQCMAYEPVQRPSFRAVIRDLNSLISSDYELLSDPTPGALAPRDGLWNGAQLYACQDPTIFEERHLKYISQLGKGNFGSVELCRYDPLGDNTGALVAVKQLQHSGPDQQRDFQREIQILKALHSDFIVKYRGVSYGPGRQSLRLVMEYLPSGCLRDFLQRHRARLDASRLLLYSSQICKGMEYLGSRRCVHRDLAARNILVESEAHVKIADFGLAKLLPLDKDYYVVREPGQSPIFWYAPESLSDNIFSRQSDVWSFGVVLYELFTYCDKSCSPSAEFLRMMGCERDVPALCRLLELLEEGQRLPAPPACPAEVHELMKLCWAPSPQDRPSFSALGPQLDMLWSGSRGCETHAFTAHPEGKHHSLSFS
Procedure: as §1

[9] = target: T8, JAK1 (h) (Homo sapiens, UniProt P23458); assay: Kinase profiling (Eurofins Cerep); type: biochemical; details: ATP at Km
T8 construct: purchased Eurofins Cerep S.A. (kinase profiler service)
T8 sequence (P23458 whole entry): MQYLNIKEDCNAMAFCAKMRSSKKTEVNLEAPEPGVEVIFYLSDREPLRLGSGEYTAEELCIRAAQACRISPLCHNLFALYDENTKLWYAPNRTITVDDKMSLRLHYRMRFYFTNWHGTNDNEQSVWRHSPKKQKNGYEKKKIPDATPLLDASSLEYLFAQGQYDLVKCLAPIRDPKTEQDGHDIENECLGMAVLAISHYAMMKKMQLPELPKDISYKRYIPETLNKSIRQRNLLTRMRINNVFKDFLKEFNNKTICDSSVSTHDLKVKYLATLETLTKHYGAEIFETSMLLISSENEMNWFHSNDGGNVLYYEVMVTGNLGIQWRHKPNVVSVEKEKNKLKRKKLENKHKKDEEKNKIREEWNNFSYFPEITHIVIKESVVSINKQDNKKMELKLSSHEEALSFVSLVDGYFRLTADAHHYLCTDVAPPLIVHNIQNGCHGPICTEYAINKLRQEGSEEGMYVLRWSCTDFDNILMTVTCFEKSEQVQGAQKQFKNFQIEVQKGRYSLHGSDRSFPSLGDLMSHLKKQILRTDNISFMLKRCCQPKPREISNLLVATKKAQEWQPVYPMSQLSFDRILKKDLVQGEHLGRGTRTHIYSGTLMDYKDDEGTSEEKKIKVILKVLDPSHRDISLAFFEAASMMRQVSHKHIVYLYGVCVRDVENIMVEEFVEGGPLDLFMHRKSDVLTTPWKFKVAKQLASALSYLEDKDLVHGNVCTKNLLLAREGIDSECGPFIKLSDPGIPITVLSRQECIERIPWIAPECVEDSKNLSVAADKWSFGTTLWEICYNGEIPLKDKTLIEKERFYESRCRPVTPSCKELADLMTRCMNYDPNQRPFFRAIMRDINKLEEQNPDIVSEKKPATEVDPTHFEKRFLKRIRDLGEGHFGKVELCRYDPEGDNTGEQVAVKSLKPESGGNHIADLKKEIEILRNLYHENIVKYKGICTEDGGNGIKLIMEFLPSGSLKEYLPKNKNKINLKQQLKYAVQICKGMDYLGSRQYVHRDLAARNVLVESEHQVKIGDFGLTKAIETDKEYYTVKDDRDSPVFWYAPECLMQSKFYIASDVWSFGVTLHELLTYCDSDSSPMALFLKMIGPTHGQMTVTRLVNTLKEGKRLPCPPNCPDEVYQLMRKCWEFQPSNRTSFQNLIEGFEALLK
Procedure: as §1

[10] = target: T9, Lyn (h) (Homo sapiens, UniProt P07948); assay: Kinase profiling (Eurofins Cerep); type: biochemical; details: ATP at Km
T9 construct: purchased Eurofins Cerep S.A. (kinase profiler service)
T9 sequence (P07948 whole entry): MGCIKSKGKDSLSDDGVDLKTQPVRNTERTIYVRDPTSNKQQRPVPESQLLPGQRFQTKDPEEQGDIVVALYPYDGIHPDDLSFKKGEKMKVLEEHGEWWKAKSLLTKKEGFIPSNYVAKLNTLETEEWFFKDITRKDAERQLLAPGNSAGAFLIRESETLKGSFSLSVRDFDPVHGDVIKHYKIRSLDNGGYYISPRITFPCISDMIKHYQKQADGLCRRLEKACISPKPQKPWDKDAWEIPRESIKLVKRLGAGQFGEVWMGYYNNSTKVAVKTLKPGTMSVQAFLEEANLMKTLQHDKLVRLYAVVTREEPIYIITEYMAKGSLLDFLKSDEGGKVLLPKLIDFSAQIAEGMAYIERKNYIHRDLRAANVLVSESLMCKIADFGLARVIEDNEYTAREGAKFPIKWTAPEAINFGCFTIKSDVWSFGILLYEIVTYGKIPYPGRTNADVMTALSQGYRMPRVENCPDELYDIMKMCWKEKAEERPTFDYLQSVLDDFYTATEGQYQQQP
Procedure: as §1

[11] = target: T10, ZAP-70 (h) (Homo sapiens, UniProt P43403); assay: Kinase profiling (Eurofins Cerep); type: biochemical; details: KMU-470 10 μM; ATP at Km
T10 construct: purchased Eurofins Cerep S.A. (kinase profiler service)
Procedure: as §1

[12] = target: T11, Tec (h) activated (Homo sapiens, UniProt P42680); assay: Kinase profiling (Eurofins Cerep); type: biochemical; details: KMU-470 10 μM; ATP at Km
T11 construct: purchased Eurofins Cerep S.A. (kinase profiler service)
Procedure: as §1

[13] = target: T12, Yes (h) (Homo sapiens, UniProt P07947); assay: Kinase profiling (Eurofins Cerep); type: biochemical; details: ATP at Km
T12 construct: purchased Eurofins Cerep S.A. (kinase profiler service)
T12 sequence (P07947 whole entry): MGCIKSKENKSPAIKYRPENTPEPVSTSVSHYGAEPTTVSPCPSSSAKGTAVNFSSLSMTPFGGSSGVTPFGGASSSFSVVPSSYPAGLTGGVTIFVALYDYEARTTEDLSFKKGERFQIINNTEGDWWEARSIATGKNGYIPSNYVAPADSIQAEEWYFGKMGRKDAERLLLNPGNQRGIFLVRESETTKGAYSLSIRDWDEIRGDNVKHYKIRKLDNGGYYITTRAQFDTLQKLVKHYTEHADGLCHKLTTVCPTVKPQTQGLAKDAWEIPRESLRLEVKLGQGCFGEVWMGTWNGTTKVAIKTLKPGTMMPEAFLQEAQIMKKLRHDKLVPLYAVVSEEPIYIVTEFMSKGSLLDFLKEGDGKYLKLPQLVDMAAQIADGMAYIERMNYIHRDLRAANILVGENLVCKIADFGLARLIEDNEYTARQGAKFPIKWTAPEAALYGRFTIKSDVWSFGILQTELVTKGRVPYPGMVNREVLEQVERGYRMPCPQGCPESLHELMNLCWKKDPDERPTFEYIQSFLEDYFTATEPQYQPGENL
Procedure: as §1

[14] = tested on: RAW 264.7 cells; assay: Toxicity / cell viability in RAW 264.7 cells (microscopy, trypan blue, XTT); type: cell-based, murine; details: up to 1 µM, 24 h, trypan blue cell count
Procedure: Figure 3 Inhibitory effect of KMU-470 on LPS-induced NO production and iNOS protein expression, and cell viability in RAW 264.7 cells. (A) The cells were pre-treated with KMU-470 at a concentration of 1 μM for 30 min and then treated with different concentrations of LPS for 24 h. Nitrite in the culture supernatant was collected and evaluated using Griess reagent. Absorbance was measured at 540 nm. *** p < 0.001, ** p < 0.01, * p < 0.05. (B) Cells are pre-treated with two different concentrations of KMU-470 (0.5 μM and 1 μM) for 30 min, followed by treatment with 1 μg/mL LPS for 24 h. β-actin was used as an internal control for Western blot analysis. (C) Image-J program was used to analyze the relative optical density of the iNOS band. (D) Cells were treated with various concentrations of KMU-470 for 24 h. The effects of KMU-470 on cell proliferation and morphological changes were observed by microscopy (X100). (E) The cell proliferation rate was determined by cell count using a trypan blue exclusion assay. *p < 0.05 (F) Effect of KMU-470 on cell viability was measured by XTT assay. *** p < 0.001.
The cell viability assay was performed using a 2,3-bis (2-methoxy-4-nitro-5-sulphonyl)-2H-tetrazolium-5-carboxanilide (XTT) assay (Welgene Inc, Daegu, Korea). […] The optical density (OD) was measured using a microplate reader (BMG Labtech, Ortenberg, Germany) at a 450 nm wavelength. […]

- Activity (% Control) Pyk2 (h) [2]: 41 % Control
- Activity (% Control) Txk (h) [3]: 50 % Control
- Activity (% Control) Fgr (h) ([4]; KMU-470 1 μM): 42 % Control
- Activity (% Control) Fgr (h) ([4]; KMU-470 10 μM): 8 % Control
- Activity (% Control) Bmx (h) [5]: 47 % Control
- Activity (% Control) JAK2 (h) ([6]; KMU-470 1 μM): 107 % Control
- Activity (% Control) JAK2 (h) ([6]; KMU-470 10 μM): 23 % Control
- Activity (% Control) Csrc (h) [7]: 43 % Control
- Activity (% Control) JAK3 (h) ([8]; KMU-470 1 μM): 38 % Control
- Activity (% Control) JAK3 (h) ([8]; KMU-470 10 μM): 15 % Control
- Activity (% Control) JAK1 (h) ([9]; KMU-470 1 μM): 61 % Control
- Activity (% Control) JAK1 (h) ([9]; KMU-470 10 μM): 20 % Control
- Activity (% Control) Lyn (h) ([10]; KMU-470 1 μM): 30 % Control
- Activity (% Control) Lyn (h) ([10]; KMU-470 10 μM): 10 % Control
- Activity (% Control) ZAP-70 (h) [11]: 100 % Control
- Activity (% Control) Tec (h) activated [12]: 71 % Control
- Activity (% Control) Yes (h) ([13]; KMU-470 1 μM): 22 % Control
- Activity (% Control) Yes (h) ([13]; KMU-470 10 μM): −3 % Control
Compound: CN(C)CCNc1cncc(-c2ccc3c(c2)/C(=C/c2cnc[nH]2)C(=O)N3)n1 [KMU-470, (Z)-3-((1H-Imidazol-5-yl)methylene)-5-(6-((2-(dimethylamino)ethyl)amino)pyrazin-2-yl)indolin-2-one]
- Up-regulation of TLR4 protein by LPS [1]: suppressed
- Toxicity in RAW 264.7 cells [14]: no toxicity
